Test results reported in patent publication US20240277847A1, “BENCH-STABLE TRIAZENE COMPOSITIONS FOR PROTEIN MODIFICATION” (ARIZONA BOARD OF REGENTS ON BEHALF OF THE UNIVERSITY OF …, priority 2021, published 2024).

Assay: pH of triazene water solution before, during and after 370 nm irradiation
Format: physicochemical
Details: 0.5 mM triazene in water, 370 nm light; for pH change during irradiation: 1 minute
Description: Referring to FIG. 5, 0.5 mM of triazenes 1a, 1g, and 1i were incubated in a water solution and the relative pH was measured before, during, and after irradiation with 370 nm light. […] Furthermore, the data notes that after irradiation has ceased, there is an immediate drop in pH consistent with the reversion of the scaffold to the trans-species.

Compound | pH change during irradiation | relative change in pH versus 1g
c1ccc(N=NN2CCCCC2)cc1 [1g] | notable increases of pH | –
O=[N+]([O-])c1ccc(N=NN2CCCCC2)cc1 [1a] | did not elicit notable pH change | –
COc1ccc(N=Nc2ccc(O)cc2O)cc1 [2i] | notable increases of pH | –
COc1ccc(N=NN2CCCCC2)cc1 [1i] | – | over double that of 1g
